# Tested on: MHC class II proteins on B cells (DRB1*0701 DQA1*0201 DQB1*0202)
# Experiment: Peptide binding assay: competition of biotinylated EBV280-290 binding to B cells, flow cytometry
# Conditions: FIG. 29
# Protocol: Peptide binding to MHC class II proteins on the surface of Epstein-Barr virus-transformed B lymphocytes was tested by quantitative flow cytometric analysis (Busch et al. 1990), with modifications. Low resolution HLA typed B cell lines (DR2 and DR7) were obtained from the Coriell Institute for Medical Research (Camden, N.J.). Those cell lines were HLA typed at high resolution for DRB1, DQA1 and DQB1. The B cell lines GM03107, GM08605, and Jesthom were selected for binding studies. The following MHC allele and reference peptide combinations were used: DRB1*0101 and influenzae peptide HA307-319, […] (SEQ ID NO:48) (Busch, R. 1991); DRB1*0701 and Epstein-Barr virus peptide EBV280-290, […] (SEQ ID NO:49) (Omiya et al., 2002); DRB1*1501 and myelin basic protein MBP84-100, […] (SEQ ID NO:50) (Fridkis-Hareli et al., 2001). A biotin molecule followed by a caproic acid-caproic acid spacer was added to the N-terminus of the reference peptides. The binding of biotinylated peptides to the MHC molecules was tested at various pH values. The pH 5.5 was used to test competition with IFN-β peptides. Detection of peptide binding was done with streptavidin-AlexaFluor546 (Molecular Probes, Eugene, O.R.) in a PCA-96 flow cell counter (Guava Technologies Inc., Hayward, Calif.). […]
sequence,measurement,value
HYLKAKEYSHCAWTIVR,competition of EBV280-290 peptide binding to B cells,dose-dependent competition

# Source: US20060148009A1, “Prediction and assessment of immunogenicity” (Xencor, Inc., priority 2004, published 2006)
